Data reported in US9745310B2 (SK BIOPHARMACEUTICALS CO., LTD., priority 2015, dated 2017).

Biological target: human mGluR5 receptor (Homo sapiens (Human), UniProt P41594)
Test: Calcium influx assay based on fluorescence (mGluR5 PAM activity)
Conditions: human mGluR5 receptor-overexpressed HEK293 cell line; L-glutamate EC20; Fluo-4, FLIPR
Outline: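 HEK293 cells overexpressing human mGluR5, loaded 1 h with Fluo-4 at 37° C. Compounds (10 μM to 10 nM final, 0.1–0.2% DMSO) added with an EC20 concentration of L-glutamate, and Ca2+ response read by FLIPR at room temperature. Activity scaled as 0% for EC20 glutamate alone and 100% for glutamate maximum.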

Chain of human mGluR5 receptor (P41594 21-1212): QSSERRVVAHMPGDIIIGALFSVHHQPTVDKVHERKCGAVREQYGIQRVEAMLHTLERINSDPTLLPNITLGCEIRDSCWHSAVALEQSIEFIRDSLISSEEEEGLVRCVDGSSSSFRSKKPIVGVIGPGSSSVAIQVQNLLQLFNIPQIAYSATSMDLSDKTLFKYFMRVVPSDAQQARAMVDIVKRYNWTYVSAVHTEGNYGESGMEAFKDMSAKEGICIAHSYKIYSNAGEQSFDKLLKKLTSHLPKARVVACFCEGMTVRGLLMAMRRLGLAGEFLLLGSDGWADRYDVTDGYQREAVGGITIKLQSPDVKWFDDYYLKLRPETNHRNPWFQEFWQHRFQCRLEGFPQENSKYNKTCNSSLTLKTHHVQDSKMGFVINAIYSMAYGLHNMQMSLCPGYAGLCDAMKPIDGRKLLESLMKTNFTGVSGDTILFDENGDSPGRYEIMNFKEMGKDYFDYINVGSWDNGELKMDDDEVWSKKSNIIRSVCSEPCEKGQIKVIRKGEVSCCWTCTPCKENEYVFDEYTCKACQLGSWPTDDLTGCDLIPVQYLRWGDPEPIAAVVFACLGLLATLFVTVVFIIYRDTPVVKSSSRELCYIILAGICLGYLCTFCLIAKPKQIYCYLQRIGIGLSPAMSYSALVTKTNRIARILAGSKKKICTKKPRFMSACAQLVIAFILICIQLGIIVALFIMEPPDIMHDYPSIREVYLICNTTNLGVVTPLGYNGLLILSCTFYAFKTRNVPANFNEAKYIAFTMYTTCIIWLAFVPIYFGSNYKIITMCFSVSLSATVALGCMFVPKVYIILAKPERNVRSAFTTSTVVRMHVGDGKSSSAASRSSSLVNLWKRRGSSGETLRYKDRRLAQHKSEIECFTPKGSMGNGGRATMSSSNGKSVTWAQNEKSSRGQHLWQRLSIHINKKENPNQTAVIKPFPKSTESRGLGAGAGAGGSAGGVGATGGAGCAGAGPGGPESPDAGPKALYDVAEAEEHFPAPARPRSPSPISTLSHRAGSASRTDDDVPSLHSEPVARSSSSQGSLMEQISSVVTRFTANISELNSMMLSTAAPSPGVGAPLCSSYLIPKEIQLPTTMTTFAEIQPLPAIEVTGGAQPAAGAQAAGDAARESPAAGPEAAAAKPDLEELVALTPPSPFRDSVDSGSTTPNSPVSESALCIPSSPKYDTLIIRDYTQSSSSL

SMILES	EC50 [nM]
Cc1ccc(-c2cnc3nc(COc4ccc(F)cn4)cn3c2)c(C)c1 [Example 128, 6-(2,4-dimethylphenyl)-2-[(5-fluoro-2-pyridyl)oxymethyl)imidazo[1,2-a]pyrimidine]	500 to 1000
Fc1ccc(-c2cnc3nc(COc4ccc(F)cn4)cn3c2)cc1 [Example 129, 6-(4-fluorophenyl)-2-[(5-fluoro-2-pyridyl)oxymethyl)imidazo[1,2-a]pyrimidine]	500 to 1000
Nc1cc(-c2cnc3nc(COc4ccc(F)cn4)cn3c2)ccc1F [Example 133, 2-fluoro-5-[2-[(5-fluoro-2-pyridyl)oxymethyl]imidazo[1,2-a]pyrimidin-6-yl]aniline]	500 to 1000
COc1cc(C#N)ccc1-c1cnc2nc(COc3ccccn3)cn2c1 [Example 136, 3-methoxy-4-[2-(2-pyridyloxymethyl)imidazo[1,2-a]pyrimidin-6-yl]benzonitrile]	500 to 1000
OCc1cc(F)ccc1-c1cnc2nc(COc3ccc(F)cn3)cn2c1 [Example 139, [5-fluoro-2-[2-[(5-fluoro-2-pyridyl)oxymethyl]imidazo[1,2-a]pyrimidin-6-yl]phenyl]methanol]	500 to 1000
CC(C)c1ccccc1-c1cnc2nc(COc3ccccn3)cn2c1 [Example 143, 6-(2-isopropylphenyl)-2-(2-pyridyloxymethyl)imidazo[1,2-a]pyrimidine]	500 to 1000
O=Cc1ccc(-c2cnc3nc(COc4ccccn4)cn3c2)c(C(F)(F)F)c1 [Example 144, 4-[2-(2-pyridyloxymethyl)imidazo[1,2-a]pyrimidin-6-yl]-3-(trifluoromethyl)benzaldehyde]	500 to 1000
Fc1ccc(-c2cnc3nc(COc4cccnc4)cn3c2)cc1 [Example 146, 6-(4-fluorophenyl)-2-(pyridin-3-yloxymethyl)imidazo[1,2-a]pyrimidine]	500 to 1000
COc1cc(F)ccc1-c1cnc2nc(COc3cccnc3)cn2c1 [Example 147, 6-(4-fluoro-2-methoxyphenyl)-2-(pyridin-3-yloxymethyl)imidazo[1,2-a]pyrimidine]	500 to 1000
Fc1ccc(-c2cnc3nc(COc4cccnc4)cn3c2)c(F)c1 [Example 148, 6-(2,4-difluorophenyl)-2-(pyridin-3-yloxymethyl)imidazo[1,2-a]pyrimidine]	500 to 1000
Oc1cc(F)ccc1-c1cnc2nc(COc3cccnc3)cn2c1 [Example 150, 6-(4-fluoro-2-hydroxyphenyl)-2-(pyridin-3-yloxymethyl)imidazo[1,2-a]pyrimidine]	500 to 1000
Fc1ccc(-c2cnc3nc(COc4ccc(F)nc4)cn3c2)c(F)c1 [Example 157, 6-(2,4-difluorophenyl)-2-(6-fluoropyridin-3-yloxymethyl)imidazo[1,2-a]pyrimidine]	500 to 1000
Cc1cc(F)ccc1-c1cnc2nc(COc3cccnc3F)cn2c1 [Example 159, 6-(4-fluoro-2-methylphenyl)-2-(2-fluoropyridin-3-yloxymethyl)imidazo[1,2-a]pyrimidine]	500 to 1000
Cc1cc(F)ccc1-c1cnc2nc(COc3cncc(Cl)c3)cn2c1 [Example 160, 6-(4-fluoro-2-methylphenyl)-2-(5-chloropyridin-3-yloxymethyl)imidazo[1,2-a]pyrimidine]	500 to 1000
COc1cc(F)ccc1-c1cnc2nc(COc3ccnc(F)c3)cn2c1 [Example 163, 6-(4-fluoro-2-methoxyphenyl)-2-(2-fluoropyridin-4-yloxymethyl)imidazo[1,2-a]pyrimidine]	100 to 500
Fc1ccc(-c2cnc3nc(COc4ccnc(F)c4)cn3c2)cc1 [Example 164, 6-(4-fluorophenyl)-2-(2-fluoropyridin-4-yloxymethyl)imidazo[1,2-a]pyrimidine]	100 to 500
Fc1cc(OCc2cn3cc(-c4cccc(F)c4F)cnc3n2)ccn1 [Example 165, 6-(2,3-difluorophenyl)-2-(2-fluoropyridin-4-yloxymethyl)imidazo[1,2-a]pyrimidine]	100 to 500
Fc1cc(OCc2cn3cc(-c4ccccc4F)cnc3n2)ccn1 [Example 166, 6-(2-fluorophenyl)-2-(2-fluoropyridin-4-yloxymethyl)imidazo[1,2-a]pyrimidine]	100 to 500
Oc1cc(F)ccc1-c1cnc2nc(COc3ccnc(F)c3)cn2c1 [Example 167, 6-(4-fluoro-2-hydroxyphenyl)-2-(2-fluoropyridin-4-yloxymethyl)imidazo[1,2-a]pyrimidine]	100 to 500
Oc1ccccc1-c1cnc2nc(COc3ccnc(F)c3)cn2c1 [Example 169, 6-(2-hydroxyphenyl)-2-(2-fluoropyridin-4-yloxymethyl)imidazo[1,2-a]pyrimidine]	100 to 500
OCc1cc(F)ccc1-c1cnc2nc(COc3ccnc(F)c3)cn2c1 [Example 170, 6-(4-fluoro-2-hydroxymethylphenyl)-2-(2-fluoropyridin-4-yloxymethyl)imidazo[1,2-a]pyrimidine]	100 to 500
Fc1ccc(-c2cnc3nc(COc4cncc(F)c4)cn3c2)cc1 [Example 171, 6-(4-fluorophenyl)-2-[(5-fluoro-3-pyridyl)oxymethyl)imidazo[1,2-a]pyrimidine]	100 to 500

The remaining lines, values ahead:

EC50 [nM]	SMILES
100 to 500	Cc1ccccc1-c1cnc2nc(COc3ccc(F)cn3)cn2c1 [Example 126, 2-[(5-fluoro-2-pyridyl)oxymethyl]-6-(o-tolyl)imidazo[1,2-a]pyrimidine]
100 to 500	Cc1cc(Cl)ccc1-c1cnc2nc(COc3ccc(F)cn3)cn2c1 [Example 127, 6-(4-chloro-2-methyl-phenyl)-2-[(5-fluoro-2-pyridyl)oxymethyl)imidazo[1,2-a]pyrimidine]
100 to 500	FC(F)(F)c1ccc(-c2cnc3nc(COc4ccccn4)cn3c2)cn1 [Example 130, 2-(2-pyridyloxymethyl)-6-[6-(trifluoromethyl)-3-pyridyl]imidazo[1,2-a]pyrimidine]
100 to 500	Fc1ccc(OCc2cn3cc(-c4ccc(C(F)(F)F)nc4)cnc3n2)nc1 [Example 131, 2-[(5-fluoro-2-pyridyl)oxymethyl]-6-[6-(trifluoromethyl)-3-pyridyl]imidazo[1,2-a]pyrimidine]
100 to 500	Nc1cc(-c2cnc3nc(COc4ccccn4)cn3c2)ccc1F [Example 134, 2-fluoro-5-[2-(2-pyridyloxymethyl)imidazo[1,2-a]pyrimidin-6-yl]aniline]
100 to 500	OCc1cc(F)ccc1-c1cnc2nc(COc3ccccn3)cn2c1 [Example 135, [5-fluoro-2-[2-(2-pyridyloxymethyl)imidazo[1,2-a]pyrimidin-6-yl]phenyl]methanol]
100 to 500	COc1cc(C#N)ccc1-c1cnc2nc(COc3ccc(F)cn3)cn2c1 [Example 137, 4-[2-[(5-fluoro-2-pyridyl)oxymethyl]imidazo[1,2-a]pyrimidin-6-yl]-3-methoxy-benzonitrile]
100 to 500	CSc1cc(F)ccc1-c1cnc2nc(COc3ccccn3)cn2c1 [Example 138, 6-(4-fluoro-2-methylsulfanyl-phenyl)-2-(2-pyridyloxymethyl)imidazo[1,2-a]pyrimidine]
100 to 500	N#Cc1ccc(-c2cnc3nc(COc4ccccn4)cn3c2)cc1 [Example 140, 4-[2-(2-pyridyloxymethyl)imidazo[1,2-a]pyrimidin-6-yl]benzonitrile]
100 to 500	COCc1cc(F)ccc1-c1cnc2nc(COc3ccccn3)cn2c1 [Example 141, 6-[4-fluoro-2-(methoxymethyl)phenyl]-2-(2-pyridyloxymethyl)imidazo[1,2-a]pyrimidine]
100 to 500	OCc1cc(C(F)(F)F)ccc1-c1cnc2nc(COc3ccccn3)cn2c1 [Example 142, [2-[2-(2-pyridyloxymethyl)imidazo[1,2-a]pyrimidin-6-yl]-5-(trifluoromethyl)phenyl]methanol]
100 to 500	FC(F)(F)c1cc(Cl)ccc1-c1cnc2nc(COc3ccccn3)cn2c1 [Example 145, 6-[4-chloro-2-(trifluoromethyl)phenyl]-2-(2-pyridyloxymethyl)imidazo[1,2-a]pyrimidine]
100 to 500	Cc1cc(F)ccc1-c1cnc2nc(COc3cccnc3)cn2c1 [Example 149, 6-(4-fluoro-2-methylphenyl)-2-(pyridin-3-yloxymethyl)imidazo[1,2-a]pyrimidine]
100 to 500	COc1cc(F)ccc1-c1cnc2nc(COc3ccncc3)cn2c1 [Example 151, 6-(4-fluoro-2-methoxyphenyl)-2-(pyridin-4-yloxymethyl)imidazo[1,2-a]pyrimidine]
100 to 500	Fc1ccc(-c2cnc3nc(COc4ccncc4)cn3c2)c(F)c1 [Example 152, 6-(2,4-difluorophenyl)-2-(pyridin-4-yloxymethyl)imidazo[1,2-a]pyrimidine]
100 to 500	Cc1ccccc1-c1cnc2nc(COc3cncc(F)c3)cn2c1 [Example 153, 6-(2-methylphenyl)-2-(5-fluoro-pyridin-3-yloxymethyl)imidazo[1,2-a]pyrimidine]
100 to 500	Cc1cc(F)ccc1-c1cnc2nc(COc3cncc(F)c3)cn2c1 [Example 154, 6-(4-fluoro-2-methylphenyl)-2-(5-fluoro-pyridin-3-yloxymethyl)imidazo[1,2-a]pyrimidine]
100 to 500	COc1cc(F)ccc1-c1cnc2nc(COc3cncc(F)c3)cn2c1 [Example 155, 6-(4-fluoro-2-methoxyphenyl)-2-(5-fluoropyridin-3-yloxymethyl)imidazo[1,2-a]pyrimidine]
100 to 500	Oc1cc(F)ccc1-c1cnc2nc(COc3cncc(F)c3)cn2c1 [Example 156, 6-(4-fluoro-2-hydroxyphenyl)-2-(5-fluoropyridin-3-yloxymethyl)imidazo[1,2-a]pyrimidine]
100 to 500	Cc1cc(F)ccc1-c1cnc2nc(COc3ccc(F)nc3)cn2c1 [Example 158, 6-(4-fluoro-2-methylphenyl)-2-(6-fluoropyridin-3-yloxymethyl)imidazo[1,2-a]pyrimidine]
100 to 500	Fc1ccc(-c2cnc3nc(COc4ccnc(F)c4)cn3c2)c(F)c1 [Example 161, 6-(2,4-difluorophenyl)-2-(2-fluoropyridin-4-yloxymethyl)imidazo[1,2-a]pyrimidine]
